Assay [1] deals with ER transcriptional activity. Nature of the assay: Ex vivo BLI and luciferase enzymatic assay in organs of ERE-Luc mice. Further details: species or system mouse. The settings on record: 200 µg/kg s.c., 6 hours after treatment. How it is done:
We next examined photon emission in a series of organs excised from the mice euthanized at 6 hours after treatment by measuring photon emission with the CCD camera (Fig. 6a) and by the more sensitive enzymatic assay in tissue extracts of each organ (Fig. 6b).
The selected organs were dissected from the animals who had received luciferine 20 min before euthanasia. The tissues were immediately subjected to ex vivo imaging session of 5 minutes. Photon emission was quantified with the Living Image Software (Caliper, PerkinElmer company) for each tissue and expressed as p/s/cm2/sr.
Luciferase enzymatic activity was measured in cells or selected tissue homogenates by a luminometer (Glomax™96 microplate luminometer; Promega) using Promega standard luciferin (Beetle Luciferin Potassium Salt) and expressed as Relative Light Units over 10 sec/μg protein (RLU/μg protein). Proteins concentrations were measured by Bradford.

Assay [2] relates to MITO-Luc mice. Nature of the assay: Macrophage count (Iba1 immunohistochemistry) around the wound site. Type of assay: in vivo, mouse. The settings on record: 200 µg/kg s.c., 72 hours after treatment. How it is done:
To better understand whether the healing effect of 1e could be attributed to its anti-inflammatory action, at the end of in vivo imaging (72 hours after treatments) the tissue surrounding the wound was dissected and subjected immunohistochemical analysis using the pan macrophage marker Iba1. […] This observation confirmed that the estrogenic compounds were able to regulate the immune response at local level.
In particular, the criteria for the assignation of granulations value are: 1 = wound bed partially covered with granulation tissue; 2 = thin granulation over the whole wound bed; 3 = thick granulation over the whole wound bed. Evaluation of macrophages was done through a specific antibody and digital image analysis: 4 µm sections from each wound healing sample were immunostained with primary rabbit […] antibody against Iba1 antigen (Wako; #019-19741) to assess the number of macrophages.
The number of positive cells were counted using the ImageJ analysis program (http://rsb.info.nih.gov/ij/) in 400x microscopic fields selected at the periphery of the wound area.

The test system of assay [3] is MITO-Luc mice (reporter of mitosis). Nature of the assay: Proliferation in the wound area, in vivo BLI of MITO-Luc mice. The arrangement: species or system mouse. An excerpt: Wound healing is a dynamic process consisting of four continuous, overlapping, and precisely programmed phases: hemostasis, inflammation, proliferation and tissue growth (proliferation) and remodeling (maturation). The healing effect of estrogens may be exerted at several levels, certainly the ability of the hormone to accelerate macrophage polarization towards the M2-reparative polarization stage plays a relevant role, however estrogens may also facilitate local cell proliferation and the formation of the granulation tissue, epithelialization, and wound contraction.
The experiments were done with the 1e compound as completely deprived of any activity on the uterus (Fig. 6). […] Photon emission was measured in the wound area at the following time: 0, 24, 48 and 72 hours post-treatment.
ERE-Luc and MITO-Luc mice were ovariectomized at two months of age; the experiment was done 2 weeks after surgery to allow the animals to recover and to decrease the levels of circulating estrogens. The animals were fed ad libitum with a special estrogen free diet (AIN 93 M, Mucedola) (Ciana et al. Endocrinology 2005) and housed in individually ventilated plastic cages within a temperature range of 22–25 °C, relative humidity of 50% ± 10% and under an automatic cycle of 12 h light/dark (lights on at 07:00 am). All animal experimentation was carried out in accordance with the ARRIVE and European Guidelines for Animal Care. All animal experiments were approved by the Italian Ministry of Research and University and controlled by a Departmental panel of experts. For the correct dosage of the compounds, the body weight of the animals (on empty stomach, fasted for at least 12–14 hours) was determined immediately before the treatment.
Ovariectomy was carried out as previously described. Wound healing was done after shaving by VEET depilatory cream a day before the treatment. The 1 cm full-thickness incisional wound was made through the skin and panniculus carnosus muscle of ovariectomized MITO-luc using a surgical scalpel (blade n°10, carbon steel, Swann-Morton Ltd). Round full-thickness wounds were done by cutting out a section of full-thickness skin (around 9 mm in diameter) using fine scissors on the dorsal skin of the isoflurane-anesthetized animal. […]
For the semi-quantitative analysis of in vivo photon emission, animals were injected i.p. with 80 mg/kg of luciferin (Beetle Luciferin Potassium Salt; Promega, Madison, WI, USA) 15 min prior the imaging session. […] Photon emission in selected body areas was measured using the Living Image Software (Caliper, PerkinElmer company). The analysis was done in ventral view: whole body, thymus, hepatic area, abdomen, limbs, vagina and in dorsal view in wound area and expressed as photon/second/cm2/steradiant (p/s/cm2/sr).

Assay [4] has as its system ER transcriptional activity. Nature of the assay: Whole body in vivo bioluminescence imaging of ERE-Luc mice, dose-response after s.c. administration. The arrangement: species or system mouse. The settings on record: for Photon Emission, whole body: 6 h vs 0 h, n = 4. An excerpt:
To investigate the activity of 1e and 1f at systemic level, we utilized the ERE-Luc reporter mice. The ERE-luc is a transgenic model obtained by random integration of a luciferase reporter driven by an estrogen-responsive promoter. The ubiquitous, regulated expression of luciferase was obtained by flanking the reporter construct with insulators.
Here, the first study we carried out was a large-range dose-response analysis to measure whole body luciferase assay after subcutaneous administration of: (1) the vehicle; (2) corn oil as control; (3) the two compounds 1e and 1f at the dosage of 20 μg/kg, 200 μg/kg, 2 mg/kg and 20 mg/kg. The mice (4 for each experimental group) were subjected to in vivo whole body imaging 6 h after the pharmacological treatment. This time was selected on the basis of previous studies showing that the peak of ER transcriptional activation generally occurs at 6–8 h after administration of the estrogenic compounds[16], [17].
For the semi-quantitative analysis of in vivo photon emission, animals were injected i.p. with 80 mg/kg of luciferin (Beetle Luciferin Potassium Salt; Promega, Madison, WI, USA) 15 min prior the imaging session. For the imaging, mice were anaesthetized using isofluorane (Isofluorane-Vet; Merial, Lyon, France) and kept under anesthesia during the 5 minutes of the session carried out with a CCD camera: both ventral and dorsal acquisition (Xenogen IVIS Lumina System; Caliper, PerkinElmer company). Photon emission in selected body areas was measured using the Living Image Software (Caliper, PerkinElmer company). The analysis was done in ventral view: whole body, thymus, hepatic area, abdomen, limbs, vagina and in dorsal view in wound area and expressed as photon/second/cm2/steradiant (p/s/cm2/sr).

Assay [5] deals with MITO-Luc mice. Nature of the assay: Wound area measurement in MITO-Luc mice. Type of assay: in vivo, mouse. The settings on record: 200 µg/kg s.c., 72 hours after treatment (vehicle 50%). How it is done: To investigate to which extent the increased proliferation observed after the pharmacological treatments was functional to the healing process, we measured the size of the wound (Fig. 9a).
Ovariectomy was carried out as previously described. Wound healing was done after shaving by VEET depilatory cream a day before the treatment. The 1 cm full-thickness incisional wound was made through the skin and panniculus carnosus muscle of ovariectomized MITO-luc using a surgical scalpel (blade n°10, carbon steel, Swann-Morton Ltd). Round full-thickness wounds were done by cutting out a section of full-thickness skin (around 9 mm in diameter) using fine scissors on the dorsal skin of the isoflurane-anesthetized animal. For in vivo treatment the compounds were administered onto the subcutaneous area surrounding the wound by multiple subcutaneous injection, immediately after the generation of the wound.

Turning to `CCCCOC(=O)CCC#C[C@]1(O)CC[C@H]2[C@@H]3CCc4cc(O)ccc4[C@H]3CC[C@@]21C` [1e, 3,17β-Hydroxy-17α-(4′carbobutoxy-1′-butyn-1′-yl)estra-1,3,5-(10)-triene], the “bioluminescence in excised organs (ex vivo BLI, enzymatic luciferase assay)” value in assay [1] was “did not induce bioluminescence in any of the organs investigated”. Besides, the “number of macrophages (Iba1 positive) in the wound area lower than in controls” value in the assay on MITO-Luc mice [2] is reported as 25%. In assay [3] (200 µg/kg s.c. around wound, 72 h versus time 0, ovx MITO-Luc), the “increase of photon emission from wound” value turned out to be 87%. The “photon emission from the wound area” value in assay [3] (200 µg/kg s.c., 48 hours after administration) is “significantly increased”. Besides, the results for the “Photon Emission, whole body” value in assay [4] (2 mg/kg s.c.) and in assay [4] (20 mg/kg s.c.) were 3 x and 12 x, respectively. For the same compound, in assay [4] (2 and 20 mg/kg s.c., 6 h), the “expression of the luciferase reporter” value is “induced the expression of the luciferase reporter around the area of subcutaneous injection and in some other body areas”. Also, the “effect at systemic level (whole body luciferase)” value in assay [4] (20 and 200 μg/kg s.c., 6 h) was “did not induce any measurable effect”. This compound also came in with a wound area reduction in the assay on MITO-Luc mice [5] of 73%.

The record behind these values is PMC5451472, “Novel Locally Active Estrogens Accelerate Cutaneous Wound Healing-Part 2” (Scientific Reports, 2017).
